This note sets out measurements from US5272178A, “Compounds of cyclic phenolic thioethers which are useful in stimulating and inhibiting superoxide generation” (G. D. Searle & Co., priority 1993, dated 1993).

Test [1] relates to human neutrophils. Briefly: Human neutrophil superoxide generation (FMLP-stimulated, cytochrome C reduction). Particulars: for IC50: read-out: FMLP Induced Superoxide Generation, Inhibition IC50. The test is classed as cell-based. The protocol: The compounds of the invention are evaluated with respect to superoxide modulating activity according to the following assay procedure:
Human neutrophil superoxide generation: Superoxide generation by formyl-methionyl-leucyl-phenylalanine (FMLP)-stimulated neutrophils was quantitated by the reduction of cytochrome C (Badwey, J. A., Curnutte, J. T. and Karnovsky, M. L., cis-Polyunsaturated fatty acids induce high levels of superoxide production by human neutrophils. J. Biol. Chem. 256: 12640-12643, 1981.) To 5 million neutrophils in 2.85 ml of Krebs-Ringer phosphate buffer, pH 7.2, 50 ul of inhibitor (in 10% DMSO/buffer), and 50 ul ferricytochrome C (5 mM, stock) were added and preincubated for 3 minutes at 37° C. Absorption measurements at 550 nm were recorded at start of preincubation. Fifty ul FMLP (6 uM, stock) was added to initiate reaction. A plateau was reached within 3 minutes and this reading minus the initial reading (before addition of FMLP) was used to calculate nanomoles of superoxide generated based on a molar extinction coefficient of 2.1×10^4 cm^-1 mole^-1.
Isolation of human neutrophils: Human neutrophils were isolated from freshly drawn blood of healthy donors. Two ml of 5% dextran (MW 200,000-300,000) in saline was added to 10 ml aliquots of blood, mixed and placed upright for 45 min. at 37° C. Approx. 8-10 ml of the plasma-white cell suspension from the dextran sedimentation was layered on 3 ml of Ficol-paque in a 15 ml tube and centrifuged at 400 g for 30 min. The supernate, containing plasma and platelets, was discarded by aspiration, and the pellet, containing predominantly neutrophils, was resuspended in 1 ml saline. The suspension was transferred to a clean tube, and pooled with other aliquots of blood treated similarly. The pooled suspension was centrifuged at 350 g for 5 min. and supernate discarded. The pellet was resuspended in 5 ml of 0.05% NaCl with a plastic Pasteur pipette for 25 seconds to lyse contaminating red cells, then 5 ml of 1.75% NaCl added to regain isotonicity. The red cell lysing procedure was repeated, the cells suspended in appropriate buffer (depending on assay) and counted.

Test [2] concerns the target T1, 5-lipoxygenase (Rattus norvegicus, UniProt P12527).
T1 construct: The 100,000 x g supernatant fraction of Rat Basophilic Leukemia Cell Homogenate (RBL-1); endogenous in cells; host or cells: RBL-1 (rat basophilic leukemia) cells, 100,000 x g supernatant of homogenate
T1 sequence (P12527 1-673): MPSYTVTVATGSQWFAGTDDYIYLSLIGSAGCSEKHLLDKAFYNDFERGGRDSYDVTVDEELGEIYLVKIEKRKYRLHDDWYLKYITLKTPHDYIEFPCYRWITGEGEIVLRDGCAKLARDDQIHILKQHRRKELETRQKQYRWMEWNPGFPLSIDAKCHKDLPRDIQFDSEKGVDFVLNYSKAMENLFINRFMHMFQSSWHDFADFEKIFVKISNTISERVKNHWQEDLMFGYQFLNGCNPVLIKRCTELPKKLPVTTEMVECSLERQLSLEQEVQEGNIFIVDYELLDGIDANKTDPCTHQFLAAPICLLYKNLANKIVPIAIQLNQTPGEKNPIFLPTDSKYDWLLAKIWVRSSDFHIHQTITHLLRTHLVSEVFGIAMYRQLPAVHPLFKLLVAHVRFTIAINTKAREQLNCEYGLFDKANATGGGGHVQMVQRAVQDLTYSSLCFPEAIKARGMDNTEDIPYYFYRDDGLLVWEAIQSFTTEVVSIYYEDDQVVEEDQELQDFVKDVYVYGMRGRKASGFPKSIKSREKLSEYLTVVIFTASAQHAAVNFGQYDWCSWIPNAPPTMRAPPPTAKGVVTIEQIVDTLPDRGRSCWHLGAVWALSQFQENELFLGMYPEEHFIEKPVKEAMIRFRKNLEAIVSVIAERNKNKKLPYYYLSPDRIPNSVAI
Briefly: Inhibition of 5-lipoxygenase, in vitro (5-HETE synthesis, RBL-1 100,000 x g supernatant). The test is classed as biochemical. Conditions: for activation at 100 µM / activation at 10 µM: stimulation, read-out: 5-Lipoxygenase, Stimulated %. How it is done:
The compounds of the invention are evaluated with respect to 5-lipoxygenaseinhibition according to the following assay procedure.
Inhibition of 5-lipoxygenase, in vitro: anti-inflammatory, anti-allergy activities.
The 100,000 x g supernatant fraction of Rat Basophilic Leukemia Cell Homogenate (RBL-1) serves as a 5-lipoxygenase enzyme source. The enzyme is incubated with [1-^14 C)-arachidonic acid and Ca++ in the presence and absence of test compound. The product of 5-lipoxygenase, 5-hydroxyeicosatetraenoic acid (5-HETE), is separated by thin-layer chromatography an measured by radioactivity. A compound inhibiting 5-HETE synthesis by 30% or more is considered active at that concentration.
For comparison the compound of Formula XX, a known 5-lipoxygenase inhibitor described in U.S. Pat. No. 4,755,524 was used. [drawing 13]

Test [3] deals with T2, Sheep Seminal Vesicle Microsome Cyclooxygenase (Ovis aries, UniProt P05979).
T2 construct: Lyophilized ovine microsome (approx. 1 mg) suspended in 2.9 ml Tris-HCl buffer, pH 8.2, containing 0.7 mM phenol were used as source; from tissue; host or cells: sheep seminal vesicle microsomes (lyophilized)
T2 sequence (P05979 25-600): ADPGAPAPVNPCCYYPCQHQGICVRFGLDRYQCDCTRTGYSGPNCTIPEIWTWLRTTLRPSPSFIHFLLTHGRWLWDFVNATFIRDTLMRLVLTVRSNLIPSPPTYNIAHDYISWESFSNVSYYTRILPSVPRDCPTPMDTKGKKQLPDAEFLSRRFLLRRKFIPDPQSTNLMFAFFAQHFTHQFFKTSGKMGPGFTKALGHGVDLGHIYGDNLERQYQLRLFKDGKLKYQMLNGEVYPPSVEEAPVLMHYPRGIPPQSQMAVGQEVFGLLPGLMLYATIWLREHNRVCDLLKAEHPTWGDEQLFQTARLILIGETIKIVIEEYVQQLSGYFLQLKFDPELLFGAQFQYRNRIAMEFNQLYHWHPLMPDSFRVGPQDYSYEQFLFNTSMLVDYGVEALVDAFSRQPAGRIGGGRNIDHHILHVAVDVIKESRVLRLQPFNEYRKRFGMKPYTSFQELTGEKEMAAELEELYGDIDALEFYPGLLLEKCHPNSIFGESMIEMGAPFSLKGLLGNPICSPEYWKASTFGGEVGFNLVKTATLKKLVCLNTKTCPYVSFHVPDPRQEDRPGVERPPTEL
Briefly: Inhibition of Sheep Seminal Vesicle Microsome Cyclooxygenase. The class given is biochemical. How it is done:
The compounds of the present invention evaluated with respect to cyclooxygenase inhibition according to the following assay procedure. Inhibition of Sheep Seminal Vesicle Microsome Cyclooxygenase The assay was based on oxygen consumption during conversion of arachidonic acid to prostaglandin G2 catalyzed by cyclooxygenase Biochem. 11:3276-3285 (1972). Lyophilized ovine microsome (approx. 1 mg) suspended in 2.9 ml Tris-HCl buffer, pH 8.2, containing 0.7 mM phenol were used as source of arachidonate cyclooxygenase. The inhibitor, 50 μl in DMSO, was added and the mixture preincubated for 5 minutes at 37° C. Fifty μl of arachidonic acid (final conc. 50 μM) was added to start the reaction. The slopes of the initial rates of oxygen uptake, in the presence and absence of inhibitor, were compared to determine reaction inhibition. Percent inhibition was computed using the following formula: [formula]

Setting [4] is: Homo sapiens, Neutrophil, % above control, read-out: FMLP Induced Superoxide Generation, Stimulation, % > control.

Turning to `COC(=O)CS[C@@H]1CCCC[C@H]1Sc1cc(C(C)(C)C)cc(C(C)(C)C)c1` (relative stereo) [Example 4], the activation at 1 µM in test [1] (Homo sapiens, Neutrophil, 1 μM, % above control, read-out: FMLP Induced Superoxide Generation, Stimulation, % > control) amounted to 67%. Moreover, in test [1] (setting [4]), the activation at 10 µM worked out at 133%. Moreover, the activation at 100 µM in test [1] (Homo sapiens, Neutrophil, 100 μM, % above control, read-out: FMLP Induced Superoxide Generation, Stimulation, % > control) is 167%.
As for `CC(C)(C)c1cc(S[C@@H]2CCCC[C@H]2SCC(=O)O)cc(C(C)(C)C)c1` (relative stereo) [Example 5, trans-[[2-[[3,5-bis(1,1-dimethylethyl)phenyl]thio]cyclohexyl]thio]acetic acid], the IC50 in test [1] (Homo sapiens, Neutrophil) worked out at 1.1 µM; in test [2] it was 100 µM.
As to `O=C(O)CS[C@@H]1CCCC[C@H]1Sc1ccccc1` (relative stereo) [Example 7], the “superoxide generation (statement in words)” value (from here on “superoxide generation”) in test [1] is reported as “did inhibit superoxide generation”. In test [1] (Homo sapiens, Neutrophil), the IC50 turned out to be 50 µM. In addition, in test [2], the “5-lipoxygenase inhibition (statement in words)” value (“5-lipoxygenase inhibition” below) is reported as “did not inhibit either 5-lipoxygenase or cyclooxygenase”. Moreover, in test [2] (at 10^-4 M), the activation at 100 µM amounted to 45%. Also, in test [2] (at 10^-5 M), the activation at 10 µM is 27%. Moreover, in test [3], the “cyclooxygenase inhibition (statement in words)” value is “did not inhibit either 5-lipoxygenase or cyclooxygenase”. For the same compound, the “Cyclooxygenase Inhibition (in words)” value in test [3] (at 100 μM) is “Inactive”.
Regarding `CC(C)(C)c1cccc(S[C@@H]2CCCC[C@H]2SCC(=O)O)c1` (relative stereo) [Example 11], the IC50 in test [1] (Homo sapiens, Neutrophil) stood at 4.8 µM; in test [3], 2.9 µM. Further, in test [2] (at 10^-4 M), the activation at 100 µM came out at 2.5%. The activation at 10 µM in test [2] (at 10^-5 M) stood at 3.2%.
With `O=C(O)CS[C@@H]1CCCC[C@H]1Sc1cccc(-c2ccccc2)c1` (relative stereo) [Example 15], the IC50 in test [1] (Homo sapiens, Neutrophil) came to 2.8 µM; in test [3], 64 µM. Besides, in test [2] (at 10^-4 M, inhibition, read-out: 5-Lipoxygenase, Inhibited %), the inhibition at 100 µM was 21.3%. Moreover, in test [2] (at 10^-5 M, inhibition, read-out: 5-Lipoxygenase, Inhibited %), the inhibition at 10 µM stood at 14.9%.
`CN(CCc1ccccn1)C(=O)CS[C@@H]1CCCC[C@H]1Sc1cc(C(C)(C)C)cc(C(C)(C)C)c1` (relative stereo) [Example 16]: the “superoxide generation” value in test [1] is “stimulated superoxide generation”. For the same compound, the activation at 10 µM in test [1] (setting [4]) was found to be 33%. Further, in test [1] (Homo sapiens, Neutrophil, 25 μM, % above control, read-out: FMLP Induced Superoxide Generation, Stimulation, % > control), the activation at 25 µM came out at 83%. For the same compound, the activation at 50 µM in test [1] (Homo sapiens, Neutrophil, 50 μM, % above control, read-out: FMLP Induced Superoxide Generation, Stimulation, % > control) came to 100%. For the same compound, in test [2], the “5-lipoxygenase inhibition” value was “inhibited 5-lipoxygenase” and the IC50 is 100 µM.
For `CC(C)(C)c1cc(S[C@@H]2CCCC[C@H]2OCC(=O)O)cc(C(C)(C)C)c1` (relative stereo) [Example 17], the IC50 in test [1] (Homo sapiens, Neutrophil) was 3.4 µM; in test [2], over 100 µM.
As to `C[C@H](Sc1cc(C(C)(C)C)c(O)c(C(C)(C)C)c1)[C@@H](C)OCC(=O)O` (relative stereo) [Formula XX, reference compound], the “superoxide generation” value in test [1] is “inhibited both superoxide generation and 5-lipoxygenase”. Moreover, the IC50 in test [1] (Homo sapiens, Neutrophil) was determined as 11 µM. For the same compound, the “5-lipoxygenase inhibition” value in test [2] is “inhibited both superoxide generation and 5-lipoxygenase”.
